Data: article PMC7261172, “Peptides containing the PCNA interacting motif APIM bind to the β-clamp and inhibit bacterial growth and mutagenesis” (Nucleic Acids Research, 2020)
pKd: −log10 of the molar value.

Key:
[1] = test system: E. coli BL21; format: cell-based, Escherichia coli; settings: Mueller-Hinton Broth, 5 × 10^5 CFU/ml, 24 h, 37°C; average of ≥3 independent biological experiments
Protocol: (§1) Briefly, bacterial suspension in Mueller-Hinton Broth was adjusted to 0.5 McFarland and diluted to 5 × 10^5 CFU/ml. The suspension (0.1 ml) was seeded in polypropylene microtiter plates (Greiner), 5 × 10^4 CFU/well. APIM-peptides were added as 10% of the total volume. Initial inoculums were quantified by seeding on agar for verification of the estimated CFU/mL. After 24 hours (h) incubation at 37°C, the microtiter plates were inspected for visible growth.

[2] = test system: E. coli MG1655; format: cell-based, Escherichia coli; settings: Mueller-Hinton Broth, 5 × 10^5 CFU/ml, 24 h, 37°C; average of ≥3 independent biological experiments
Protocol: as §1

[3] = test system: S.epidermidis (MRSE); format: cell-based, Staphylococcus epidermidis; settings: 24 h
Protocol: as §1

[4] = test system: E. coli MG1655 cells; assay: Replication assay (flow cytometry of DNA content, Rif/Cpx run-out); format: cell-based, Escherichia coli; settings: up to 15 μM peptide (above MIC), then Rif and Cpx run-out
Protocol: E. coli MG1655 cells were grown at 37°C in glucose-CAA medium (AB minimal medium ([46]) supplemented with 10 μg/ml thiamine, 0.2% glucose and 0.5% casamino acids) for several generations to ensure balanced growth. At an OD600 = 0.15, the cells were added 2, 4 or 6 μM RWLVK* peptide or 2, 4, 6 or 15 μM R11 peptide. Growth was continued for 2–5 min. After peptide treatment, cells were either harvested directly or treated with rifampicin (Rif) (300 μg/ml) and cephalexin (Cpx) (10 μg/ml) for the time equivalent of three to four generations before harvesting. Both directly harvested and Rif and Cpx treated cells were re-suspended in TE buffer (10 mM Tris–HCl, pH 8.0, 1 mM EDTA, pH 8.0) and fixed in 70% ethanol. Fluorescein isothiocyanate (FITC, Sigma-Aldrich) ([47]) was used for protein staining (representing mass), and Hoechst 33258 was used for DNA staining (Sigma-Aldrich) ([48]). Flow cytometry was performed with an LSR-II flow cytometer equipped with a 488 nm argon-ion laser and a 355 nm krypton laser (BD Biosciences), and the results were analyzed using FlowJo software (Tree Star, Inc.). Rif and Cpx inhibit the initiation of replication and cell division, respectively. Cells cannot initiate a new round of replication after these drugs are added but can complete ongoing rounds of replication (without dividing). […]

[5] = test system: E. coli MG1655; assay: Rif^R mutagenicity assay, added cell penetrating peptides; format: cell-based, Escherichia coli; settings: spontaneous; for Mutation frequency, added peptides: E. coli MG1655, cell penetrating peptide 20 μM, average ± SEM, RWLVK n = 11, RFSLK n = 4, RWLK n = 7, R11 n = 5, control 10.5 ± 2.2
Protocol: (§2) The rifampicin resistance (Rif^R) mutagenicity assay was performed as described in ([50]) with some modifications. Briefly, E. coli BL21 expressing peptide variants were induced with (IPTG) (1 mM) at OD600 = 0.3–0.4 and cultured at 37°C, for 2 h before harvested. Bacteria from large culture volumes (up to 50 ml) were plated in order to obtain ∼100 Rif^R colonies per dish. The anti-mutagenic effect of cell penetrating APIM-peptides in E. coli MG1655 was done by adding 20 μM peptide at OD600 = 0.01, and the cells were cultured for 30 min. Next, the cells were pelleted and washed with PBS before UV-irradiated in (50 μl) PBS (2 mJ UVC/cm^2), re-suspended in 2.5 ml LB and cultured in 37°C for 2 h before plating on LB plates with and without Rif (100 μg/ml). The number of Rif^R colonies/ total CFU was determined after 1 and 2 days, respectively. Significance was calculated by using a two-tailed, paired, students t-test. Gentamicin resistance (Gen^R) was examined using a gentamicin sensitive clinical isolate of S. epidermidis. […] The cultures were grown in a shaking incubator (37°C) and were re-inoculated (1:100) every 24 h in fresh TSB and supplements. The cultures were plated on blood agar plates with and without gentamicin (10 mg/l) every day for 4 days, and the frequency of Gen^R colonies was determined by calculating the number of Gen^R colonies/total CFU.

[6] = test system: clinical isolates of multidrug-resistant S. epidermidis; assay: Inhibition of growth (OD600) of clinical isolates; format: cell-based, Staphylococcus epidermidis; settings: most sensitive clinical isolate (isolate 1); same molar concentration as the full-length RWLVK-peptide; Figure 1B
Protocol: Growth experiments were performed in Luria-Bertani broth (LB) media, Tryptic soy broth (TSB) or LB agar at 37°C, antibiotic selections were performed using the following concentrations: kanamycin 30 μg/ml, chloramphenicol 34 μg/ml and rifampicin 100 μg/ml.

[7] = molecular target: T1, E.coli β-clamp (Escherichia coli, UniProt P0A988); assay: Microscale thermophoresis (MST) β-clamp binding; settings: cell penetrating peptides, MST buffer with 2% fetal bovine serum, initial in vitro binding experiments, bounds given
T1 construct: made in house
T1 sequence (P0A988 whole entry): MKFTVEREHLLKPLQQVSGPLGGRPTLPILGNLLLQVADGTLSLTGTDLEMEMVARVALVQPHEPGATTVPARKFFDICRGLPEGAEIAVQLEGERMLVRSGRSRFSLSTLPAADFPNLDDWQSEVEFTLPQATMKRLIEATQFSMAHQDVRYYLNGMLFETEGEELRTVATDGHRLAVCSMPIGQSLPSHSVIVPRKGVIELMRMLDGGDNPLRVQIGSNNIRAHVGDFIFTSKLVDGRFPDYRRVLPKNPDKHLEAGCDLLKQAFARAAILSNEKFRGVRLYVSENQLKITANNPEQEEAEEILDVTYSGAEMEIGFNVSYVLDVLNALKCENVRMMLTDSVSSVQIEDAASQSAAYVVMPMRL
Protocol: Purified E.coli β-clamp ([49]) was labeled using the RED-Maleimide Labelling Kit (NanoTemper Technologies, GmbH) according to the manufacturer's instructions applying a concentration of 20 μM protein at room temperature. The ligands, cell penetrating APIM-peptides, were dissolved and diluted in supplemented Microscale thermophoresis (MST) buffer (50 mM Tris–HCl pH 7.5, 150 mM NaCl, 10 mM MgCl2) with 2% fetal bovine serum and incubated for 10 min in room temperature. Series of 1:1 dilutions (16×), producing ligand concentrations ranging from 500 μM to 15 nM, were made. Each ligand solution was further diluted 1:1 with fluorescent labeled β-clamp (diluted in MST buffer, 3 nM) and incubated for 10 min. Fluorescence was measured for each protein-ligand sample using a Monolith NT.115 instrument (20% MST power and 100% LED power) and Monolith NT Standard Treated Capillaries (both NanoTemper Technologies, GmbH). To calculate the KD’s, fluorescence signals were plotted and analyzed using the supplemented software (NT Analysis software version 1.5.41 and MO.affinity analysis version 2.2.4, NanoTemper Technologies). Denaturation with SD-buffer (4% sodium dodecyl sulphate and 40 mM DTT) and re-measurement of total fluorescence confirmed that the observed change in fluorescence was due to ligand binding event.

[8] = test system: MRSA 43484; assay: Murine skin wound infection model; settings: topical
Protocol: The experimental procedure is modified from a previously described skin infection model in mice ([52]). A total of 32 Balb/C female mice (18–22 g, Taconic, Denmark) were used for the experiment. The mice were treated orally with analgesia, 45 μl Nurofen®junior (Novartis 20 mg/ml ∼30 mg/kg), 30–60 min before the experiment. The mice were anesthetized with 0.15 ml diluted Zoletil mix (2 ml Zoletil mix + 5.2 ml sterile saline + 2.8 ml Torbugesix 1:100) before the fur was removed on a 2 × 3 cm area of the back with an electric shaver and a razor. At last, a skin lesion was made on each mouse with a dermal curette (Miltex 335710). A total of 10 μl inoculum containing 10^7 CFU MRSA 43484 (in saline) was added to a 1 cm^2 area of the skin lesion of each mouse. One group of animals (six mice) were sacrificed 1 day after inoculation, before any treatment was given, to quantify the inoculum. The remaining mice were given topical treatment twice a day (9 a.m and 3 p.m) for 3 days; APIM-peptide (RFSLK, Innovagen SE, 12.8 mg/ml in 1% methyl cellulose gel containing 10% glycerol) or Fusidic acid 2% ointment (LeoPharma). A volume of 50 μl was used for each treatment, spread out on the skin lesion. […] The treated animals and the control group were sacrificed on day 4, one day after the last treatment. […]

[9] = test system: gentamicin sensitive clinical isolate of S. epidermidis; assay: Gentamicin resistance (Gen^R) mutation frequency assay; format: cell-based, Staphylococcus epidermidis; settings: peptide 3 μM, 4 days, daily re-inoculation 1:100 in TSB, n≥ 4; Figure 4B
Protocol: as §2

Molecule	Minimal Inhibitory Concentration (MIC) E. coli BL21 [1]	Minimal Inhibitory Concentration (MIC) E. coli MG1655 [2]	Minimal Inhibitory Concentration (MIC) S.epidermidis (MRSE) [3]	Inhibition of DNA replication [4]	Effect of added cell penetrating peptide on the mutation frequency ([5]; E. coli MG1655, 20 μM)	Mutation frequency, added peptides [5]	Inhibition of growth (OD600), % of untreated parallel [6]	KD for the β-clamp (MST) [7]	Bacterial load in the infected lesions (CFU/skin lesion) on day 4 ([8]; 50 μl twice a day for 3 days, 12.8 mg/ml (3.5 mM) in 1% methyl cellulose gel with 10% glycerol, compared to controls, Figure 5)	Toxicity of the APIM-peptide gel ([8]; twice a day for 3 days, mice)	Mutation frequency (Gen^R/10^8 CFU) compared to the control, peptide alone [9]	pKd ([7]; read-out: KD for the β-clamp (MST))
N=C(N)NCCC[C@H](NC(=O)[C@H](CCCNC(=N)N)NC(=O)[C@H](CCCNC(=N)N)NC(=O)[C@H](CCCNC(=N)N)NC(=O)[C@H](CCCNC(=N)N)NC(=O)[C@H](CCCNC(=N)N)NC(=O)[C@H](CCCNC(=N)N)NC(=O)[C@H](CCCNC(=N)N)NC(=O)[C@H](CCCNC(=N)N)NC(=O)[C@H](CCCNC(=N)N)NC(=O)[C@@H](N)CCCNC(=N)N)C(N)=O [R11, reference compound]	11 µM	14.5 µM	12 µM	did not have any effect	did not affect the mutation frequency	7.2 ± 3.9 Rif^R/10^8 CFU	no effect	no binding was detected				
Ac-MDRFSLKWKKKRKIRRRRRRRRRRR-NH2 [RFSLK]	4 µM	7.5 µM	3 µM			4.1 ± 1.6 * Rif^R/10^8 CFU			significantly reduced the bacterial load	no toxicity	did not change the mutation frequency	> 4.30
